Our source for the IC50 and maximum tolerated dose values is patent US10526294B2, “Pyrrolobenzodiazepines and conjugates thereof” (priority 2016, dated 2020).

The structures appear in SMILES notation.

The test system of data set [1] is SKBR3 cells. Put plainly: Cell viability assay (CellTiter-Glo), SKBR3. It is filed as cell-based. The note with it: Homo sapiens, SK-BR-3; PBD compounds (Table I); HER2 expressing cells; 72 h. Here is the method:
(§1) Cell Viability Assay for Antibody-Polymer-Drug Conjugates.
(§2) PBD compounds and conjugates thereof were evaluated for their antiproliferation properties in tumor cell lines in vitro using CellTiter-Glo® (Promega Corp). Cells were plated in black walled 96-well plate and allowed to adhere overnight at 37° C. in a humidified atmosphere of 5% CO2. BT474, SKBR3, NCI-N87 cells (HER2 expressing cells), JIMT1 cells (HER2 medium expression level cells) and MCF7 cells (HER2 low expressing levels cells) and were plated at a density of 5,000 cells per well. The next day the medium was replaced with 50 μL fresh medium and 50 μL of 2× stocks of PBD compounds or antibody-PBD conjugate were added to appropriate wells, mixed and incubated for 72 h. CellTiter-Glo® reagent was added to the wells at room temperature and the luminescent signal was measured after 10 min using a SpectraMax M5 plate reader (Molecular Devices). Dose response curves were generated using SoftMax Pro software. IC50 values were determined from four-parameter curve fitting.
A general note: In ATP-based viability assays light output follows the ATP content of the culture.

Data set [2] has as its system MCF7 cells. The data set is described as follows: Cell viability assay (CellTiter-Glo), MCF7. The following applies: Homo sapiens, PBD compounds (Table I), HER2 low expressing levels cells, 72 h. It is filed as cell-based. As to the method:
as §1, §2

Data set [3] concerns BT474 cells. The data set is described as follows: Cell viability assay (CellTiter-Glo), BT474. It is filed as cell-based. The note with it: Homo sapiens, BT-474; PBD compounds (Table I); HER2 expressing cells; 72 h. Here is the method: as §1, §2
In data set [4] the test system is JIMT1 cells. The data set is described as follows: Cell viability assay (CellTiter-Glo), JIMT1. In kind it is cell-based. The following applies: Homo sapiens, JIMT-1; PBD compounds (Table I); HER2 medium expression level cells; 72 h. Here is the method: as §1, §2
Data set [5] deals with NCI-N87 cells. The data set is described as follows: Cell viability assay (CellTiter-Glo), NCI-N87. It is filed as cell-based. The following applies: Homo sapiens, PBD compounds (Table I), HER2 expressing cells, 72 h. As to the method:
as §1, §2

For data set [6] the following is noted: Phase I clinical evaluation; cited from earlier work.

In general, IC50 refers to the concentration that inhibits the measured activity by half. A high value points to weaker potency.

On to `C=C1CC2C=Nc3cc(OCCCC(=O)Nc4cn(C)c(C(=O)Nc5ccc(-c6nc7ccc(C(=O)OC)cc7[nH]6)cc5)n4)c(OC)cc3C(=O)N2C1` (centres unmarked) [Compound 33, (Z)-methyl 2-(4-(4-(4-(7-methoxy-2-methylene-5-oxo-2,3,5,11a-tetrahydro-1H-benzo[e]pyrrolo[1,2-a][1,4]diazepin-8-yloxy)butanamido)-1-methyl-1H-imidazole-2-carboxamido)phenyl)-1H-benzo[d]imidazole-6-carboxylate], for which the IC50 turned out to be 0.3 nM in data set [1]; 3.4 nM in data set [2]; 3.1 nM in data set [3]; 0.3 nM in data set [4]; 0.9 nM in data set [5].
For the molecule `C=C1C[C@H]2C=Nc3cc(OCCCC(=O)Nc4cn(C)c(C(=O)Nc5cc(C(=O)Nc6ccc(-c7nc8cc(N)ccc8[nH]7)cc6)n(C)c5)n4)c(OC)cc3C(=O)N2C1` [Compound 24, (S,Z)—N-(5-(4-(5-amino-1H-benzo[d]imidazol-2-yl)phenylcarbamoyl)-1-methyl-1H-pyrrol-3-yl)-4-(4-(7-methoxy-2-methylene-5-oxo-2,3,5,11a-tetrahydro-1H-benzo[e]pyrrolo[1,2-a][1,4]diazepin-8-yloxy)butanamido)-1-methyl-1H-imidazole-2-carboxamide], the IC50 in data set [1] worked out at 1 nM; in data set [2] it was 34 nM; in data set [3], 21 nM; in data set [4] it was 1.8 nM; in data set [5] it was 3 nM.
Turning to `COc1cc2c(cc1OCCCC(=O)Nc1cn(C)c(C(=O)Nc3ccc(-c4cc(C(=O)NCCCO)n(C)c4)cc3)n1)N=C[C@@H]1CCCN1C2=O` [Compound 40, (S,Z)—N-(4-(5-(3-hydroxypropylcarbamoyl)-1-methyl-1H-pyrrol-3-yl)phenyl)-4-(4-(7-methoxy-5-oxo-2,3,5,11a-tetrahydro-1H-benzo[e]pyrrolo[1,2-a][1,4]diazepin-8-yloxy)butanamido)-1-methyl-1H-imidazole-2-carboxamide], the IC50 in data set [1] was 0.8 nM; in data set [2], 5.5 nM; in data set [3], 3 nM; in data set [4], 1.3 nM; in data set [5] it was 1.7 nM.
For the molecule `COc1cc2c(cc1OCCCC(=O)Nc1cn(C)c(C(=O)Nc3ccc(-c4cc(C(=O)O)n(C)c4)cc3)n1)N=C[C@@H]1CCCN1C2=O` [Compound 44, (S,Z)-4-(4-(4-(4-(7-methoxy-5-oxo-2,3,5,11a-tetrahydro-1H-benzo[e]pyrrolo[1,2-a][1,4]diazepin-8-yloxy)butanamido)-1-methyl-1H-imidazole-2-carboxamido)phenyl)-1-methyl-1H-pyrrole-2-carboxylic acid], the IC50 came out at 53 nM in data set [1]; 560 nM in data set [2]; 1000 nM in data set [3]; 109 nM in data set [4]; 105 nM in data set [5].
For `C=C1C[C@H]2C=Nc3cc(OCCCC(=O)Nc4cc(-c5nc6ccc(N)cc6[nH]5)n(C)c4)c(OC)cc3C(=O)N2C1` [Compound 27, (S,Z)—N-(5-(6-amino-1H-benzo[d]imidazol-2-yl)-1-methyl-1H-pyrrol-3-yl)-4-(7-methoxy-2-methylene-5-oxo-2,3,5,11a-tetrahydro-1H-benzo[e]pyrrolo[1,2-a][1,4]diazepin-8-yloxy)butanamide] the same measures were 6.1 nM, 26 nM, 27.3 nM, 9 nM and 13 nM.
Regarding `C=C1C[C@H]2C=Nc3cc(OCCCC(=O)Nc4cc(C(=O)Nc5ccc(-c6cc(C(=O)NCCCO)n(C)c6)cc5)n(C)c4)c(OC)cc3C(=O)N2C1` [Compound 37, (S,Z)—N-(3-hydroxypropyl)-4-(4-(4-(4-(7-methoxy-2-methylene-5-oxo-2,3,5,11a-tetrahydro-1H-benzo[e]pyrrolo[1,2-a][1,4]diazepin-8-yloxy)butanamido)-1-methyl-1H-pyrrole-2-carboxamido)phenyl)-1-methyl-1H-pyrrole-2-carboxamide], the IC50 in data set [1] was 0.9 nM; in data set [2], 4.9 nM; in data set [3], 2.9 nM; in data set [4], 1 nM; in data set [5] it was 1 nM.
Regarding `C=C1C[C@H]2C=Nc3cc(OCCCC(=O)Nc4cn(C)c(C(=O)Nc5ccc(-c6cc7cc(N)ccc7[nH]6)cc5)n4)c(OC)cc3C(=O)N2C1` [Compound 18, (S)—N-(4-(5-amino-1H-indol-2-yl)phenyl)-4-(4-((7-methoxy-2-methylene-5-oxo-2,3,5,11a-tetrahydro-1H-benzo[e]pyrrolo[1,2-a][1,4]diazepin-8-yl)oxy)butanamido)-1-methyl-1H-imidazole-2-carboxamide], the IC50 in data set [1] turned out to be 0.08 nM; in data set [2], 0.7 nM; in data set [3], 0.5 nM; in data set [4], 0.2 nM; in data set [5], 0.2 nM.
As for `C=C1C[C@H]2C=Nc3cc(OCCCOc4cc5c(cc4OC)C(=O)N4CC(=C)C[C@H]4C=N5)c(OC)cc3C(=O)N2C1` [SJG-136], the maximum tolerated dose in data set [6] was 45 μg/m^2.
For `C=C1C[C@H]2C=Nc3cc(OCCCC(=O)Nc4cn(C)c(C(=O)Nc5ccc(-c6cc(C(=O)O)n(C)c6)cc5)n4)c(OC)cc3C(=O)N2C1` [Compound 43, (S,Z)-4-(4-(4-(4-(7-methoxy-2-methylene-5-oxo-2,3,5,11a-tetrahydro-1H-benzo[e]pyrrolo[1,2-a][1,4]diazepin-8-yloxy)butanamido)-1-methyl-1H-imidazole-2-carboxamido)phenyl)-1-methyl-1H-pyrrole-2-carboxylic acid], the IC50 turned out to be 8.2 nM in data set [1]; 250 nM in data set [2]; 34.3 nM in data set [3]; 33.2 nM in data set [4]; 12 nM in data set [5].
